Test results from US10716778B2, “Use of compounds that are able to increase the serum IGF-1 level for the preparation of a therapeutical composition for treatment of various disease states associated with a reduced IGF-1 serum level in humans and animals” (VEIJLEN N.V., priority 2003, dated 2020).
Values joined by “and” are separate entries in the source; they are usually repeats but may differ in a detail not shown here. Equal entries are not always repeated.

Experiments:
IgF-BP3/IgF-1 = assay: Ratio IgF-BP3/IgF-1 in type 2 diabetic patients during medication with IAA (Example 4); assay type: in vivo, human; details: for Ratio IgF-BP3/IgF-1: acetic acid
Description: Five male type 2 diabetic patients took part in the study. They were all very difficult to regulate. When the study started, the average HbA1c was to be approximately 9.0%. The patients had no other clinical problems. In addition, the IgF-BP3/IgF-1 ratio had to be over 10. The age of the subjects were between 45 years and 75 years with an average of 58. The period of the investigation was 6 months. […] The following parameters were checked: IGF-1 and IGF-PB-3. Also, at the start, safety parameters (liver tests, hematology) were determined. Every 8 weeks, HbA1c was determined.
(§1) All samples from one subject were analyzed in the same run to avoid intra-assay variability. Quantification of IGF-1 was performed using an immunoradiometric assay (IRMA) (DSL-5600 ACTIVE™, DSL, Germany GmbH, Germany). Intra- and inter-assay variance was: 4.0% and 9.2% and 1.5% for IGF-1. The Hba1c was analyzed on HPLC Menarine HA 81-60.
(§2) The total work output of every subject was calculated with a 2-way ANOVA for repeated measures and the hormone values were analyzed with the Wilcoxon test. In all cases, a p value of <0.05 was accepted as significant.

IGF-BP3 = assay: Plasma IGF-BP3 level in eight CFS patients treated with the composition (Example 1); assay type: in vivo, human
Experimental: Eight patients suffering from severe chronic fatigue syndrome (CFS) were studied over a 5- to 7-month period. In this period, they were treated with a therapeutical composition of the disclosure in the form of a food supplement, which comprised IAA as the active ingredient. All subjects were unable to do their job or to perform very light physical exercise.
Before entering the study, the subjects underwent a careful medical examination to exclude any other disease. Blood was assayed for insulin-like growth factor 1 (IGF-1) and its major binding protein IGF-BP3 was sampled at 0, 1, 3 and 5 to 7 months of treatment because the total amount of IGF-1 in serum minus the amount of IGF-BP3 is the amount of free IGF-1. Free IGF-1 is the active serum fraction. Also at 0, 1, 3 and 5 to 7 months, job participation and physical activities were registered and calculated as percentage of normal, before disease pattern.
Eight women varying in age from 25 to 53 years having severe complaints of fatigue that made it impossible to function normally, both at work and in free time. All reported an excessive need for sleep, which was never refreshing even though it was prolonged (more than 12 hours). After excluding all other diseases and infections, they were all diagnosed for CFS.
Blood samples of 20 ml were taken and liver and kidney functions, the red and white hemogram, IGF-1 and IGF-BP3 determined. The patients took 1000 mg/day (corresponding to 40 mg IAA and 960 mg salt and WPC 70) of the composition of the disclosure for 4 weeks. After this, the dosage was reduced by 250 mg (corresponding to 10 mg IAA) every 2 weeks to 750 mg/day, 500 mg/day 250 mg/day, respectively. […]
At the start of the study and at each check-up point, the work participation and physical activity pattern were scored on a scale from 1 to 10 and plotted as the percentage of the patient's normal activities. […] IGF-BP3 was determined by means of an immunoassay (DSL-5600 ACTIVE™, DSL Deutschland GmbH, Germany) having an intra-assay variance of 4.4% and an inter-assay variance of 6.6%. […]

IGF-1 = IGF-1 concentration in problem piglets (group P) with history of PRRSV treated with IAA (Example 9); assay type: in vivo, Belgian Land Race piglets; details: for IGF-1: group P piglets, acetic acid
Experimental: The piglets were weaned at four weeks and relocated, twelve piglets per pen. IGF-1 levels from three different groups were tested at the age of five weeks.
These are the pigs with the big problems. They are looking poor, have a low weight, bad color and some of them have Staphylococcus infections. It was the firm belief of the farmer and the veterinarian that these piglets would not reach the end of the fattening cycle. Blood samples were taken at random from five of the twelve piglets.
After seeing the low IGF-1 levels in group P, it was decided to give them the same treatment as in humans with CFS. The average weight of the piglets would have been around seven kilos at five weeks of age. They were treated with 125 mg of the composition comprising 5 mg IAA and 120 mg NaCl and WPC 70 for ten days. The product was fed in a trough, mixed in liquid feed. All the piglets ate from the same trough.
After ten days of treatment, random blood samples were taken from the different groups. A code was added for the size of the animals (K=small; N=normal; Z=heavy).
At random, IGF-1 concentrations of five piglets of this group were measured.
Three weeks later, blood samples were again taken, but only from the problem group.

HbA1c = HbA1c in type 2 diabetic patients during medication with IAA (Example 4); assay type: in vivo, human; details: for HbA1c: acetic acid
Description: Five male type 2 diabetic patients took part in the study. They were all very difficult to regulate. When the study started, the average HbA1c was to be approximately 9.0%. The patients had no other clinical problems. In addition, the IgF-BP3/IgF-1 ratio had to be over 10. The age of the subjects were between 45 years and 75 years with an average of 58. The period of the investigation was 6 months. At the start of the study, after 2 month, 4 months and at the end at 6 months, blood was taken. The following parameters were checked: IGF-1 and IGF-PB-3. Also, at the start, safety parameters (liver tests, hematology) were determined. Every 8 weeks, HbA1c was determined.
as §1, §2

## indole acetic acid [IAA]
IgF-BP3/IgF-1; Month 0 (start), average of 5 subjects
  Ratio IgF-BP3/IgF-1, average: 10.6
IgF-BP3/IgF-1; Month 0 (start), individual subjects
  Ratio IgF-BP3/IgF-1: 10.2 and 10.6 and 10.8 and 11.3 and 10.0
IgF-BP3/IgF-1; Month 1, average of 5 subjects
  Ratio IgF-BP3/IgF-1, average: 9.9
IgF-BP3/IgF-1; Month 1, individual subjects
  Ratio IgF-BP3/IgF-1: 9.7 and 10.1 and 9.9 and 10.8 and 8.9
IgF-BP3/IgF-1; Month 2, average of 5 subjects
  Ratio IgF-BP3/IgF-1, average: 8.9
IgF-BP3/IgF-1; Month 2, individual subjects
  Ratio IgF-BP3/IgF-1: 9.0 and 8.6 and 9.4 and 9.2 and 8.5
IgF-BP3/IgF-1; Month 3, average of 5 subjects
  Ratio IgF-BP3/IgF-1, average: 8.5
IgF-BP3/IgF-1; Month 3, individual subjects
  Ratio IgF-BP3/IgF-1: 8.6 and 8.3 and 8.9 and 8.8 and 8.1
IgF-BP3/IgF-1; Month 4, average of 5 subjects
  Ratio IgF-BP3/IgF-1, average: 7.9
IgF-BP3/IgF-1; Month 4, individual subjects
  Ratio IgF-BP3/IgF-1: 8.0 and 7.6 (2×) and 8.3 and 7.8
IgF-BP3/IgF-1; Month 5, average of 5 subjects
  Ratio IgF-BP3/IgF-1, average: 7.2
IgF-BP3/IgF-1; Month 5, individual subjects
  Ratio IgF-BP3/IgF-1: 7.2 (2×) and 6.8 and 7.6 and 7.3
IgF-BP3/IgF-1; Month 6, average of 5 subjects
  Ratio IgF-BP3/IgF-1, average: 6.8
IgF-BP3/IgF-1; Month 6, individual subjects
  Ratio IgF-BP3/IgF-1: 6.6 and 6.3 and 7.2 and 6.9 (2×)
IGF-BP3; after 1 month of treatment
  IGF-BP3 level (mean±SD): 18.1 ± 3.5 nmol/L
IGF-BP3; after 5 months of treatment
  IGF-BP3 level (mean±SD): 13.4 ± 10.6 nmol/L
IGF-BP3; before treatment (baseline)
  IGF-BP3 level (mean±SD): 25 ± 11.5 nmol/L
IGF-1; age five weeks, before treatment (baseline), random individual piglets
  IGF-1: 2.3 nmol/l and <0.5 nmol/l (2×) and 2.0 nmol/l and 1.8 nmol/l
IGF-1; after ten days of treatment (125 mg composition = 5 mg IAA), random individual piglets
  IGF-1: 0.8 nmol/l and <0.5 nmol/l (3×) and 4.2 nmol/l
IGF-1; three weeks later, treatment stopped, individual piglets
  IGF-1: 55.6 nmol/L and 30.0 nmol/L and 23.4 nmol/L and 65.1 nmol/L and 13.7 nmol/L and 60.1 nmol/L and 36.9 nmol/L
IGF-1; group P, after ten days of treatment
  change of IGF-1 levels: did not rise
HbA1c; Week 0 (start), average of 5 subjects
  HbA1c, average: 9.0%
HbA1c; Week 0 (start), individual subjects
  HbA1c: 9.6% and 9.0% and 9.1% and 8.6% and 8.8%
HbA1c; Week 8, average of 5 subjects
  HbA1c, average: 8.3%
HbA1c; Week 8, individual subjects
  HbA1c: 8.9% and 8.2% and 8.3% (2×) and 7.6%
HbA1c; Week 16, average of 5 subjects
  HbA1c, average: 7.4%
HbA1c; Week 16, individual subjects
  HbA1c: 8.0% and 7.1% and 7.4% and 6.9% and 7.6%
HbA1c; Week 24, average of 5 subjects
  HbA1c, average: 6.7%
HbA1c; Week 24, individual subjects
  HbA1c: 7.4% and 6.4% and 6.6% and 6.3% and 6.8%
